# Laboratory results: article PMC6522510 (Nature Communications, 2019)
# “And” between values parts separate entries of the source, which are not always exact repeats. Equal values may be shown once. Read-outs that look alike come from different tables or passages of the source.
# Tests used:
# CMS [1] = test: Secondary dose-response HTS, Cell Titer Glo; type: cell-based, human; details: Homo sapiens, HTS, read-out: average effective concentration, CMS
# MOLM-13 [2] = test: cells; set-up: species or system AML cell lines (8); Secondary HTS, 10-point dose-response in triplicate, Cell Titer Glo viability, four-parameter fit EC50; details: Homo sapiens, MOLM-13, 72 h, read-out: MOLM-13
# CHRF288-11 [3] = test: cells; set-up: species or system AML cell lines (8); Secondary HTS, 10-point dose-response in triplicate, Cell Titer Glo viability, four-parameter fit EC50; details: 72 h, read-out: CHRF288-11
# M07e [4] = test: cells; set-up: species or system AML cell lines (8); Secondary HTS, 10-point dose-response in triplicate, Cell Titer Glo viability, four-parameter fit EC50; details: M-07e, 72 h, read-out: M07e
# ML-2 [5] = test: cells; set-up: species or system AML cell lines (8); Secondary HTS, 10-point dose-response in triplicate, Cell Titer Glo viability, four-parameter fit EC50; details: Homo sapiens, ML-2, 72 h, read-out: ML-2
# MV4-11 [6] = test: cells; set-up: species or system AML cell lines (8); Secondary HTS, 10-point dose-response in triplicate, Cell Titer Glo viability, four-parameter fit EC50; details: Homo sapiens, MV4-11, 72 h, read-out: MV4-11
# CMK [7] = test: Secondary dose-response HTS, Cell Titer Glo; type: cell-based, human; details: Homo sapiens, CMK, read-out: average effective concentration, CMK
# U937 [8] = test: cells; set-up: species or system AML cell lines (8); Secondary HTS, 10-point dose-response in triplicate, Cell Titer Glo viability, four-parameter fit EC50; details: Homo sapiens, U-937, 72 h, read-out: U937
# CMK [9] = test: cells; set-up: species or system AML cell lines (8); Secondary HTS, 10-point dose-response in triplicate, Cell Titer Glo viability, four-parameter fit EC50; details: Homo sapiens, CMK, 72 h, read-out: CMK
# MV4-11 [10] = test: Secondary dose-response HTS, Cell Titer Glo; type: cell-based, human; details: Homo sapiens; secondary high-throughput screen; MV4-11; read-out: average effective concentration, MV4-11
# CMS [11] = test: cells; set-up: species or system AML cell lines (8); Secondary HTS, 10-point dose-response in triplicate, Cell Titer Glo viability, four-parameter fit EC50; details: 72 h, read-out: CMS
# U937 [12] = test: Secondary dose-response HTS, Cell Titer Glo; type: cell-based, human; details: Homo sapiens, U-937; secondary high-throughput screen; U937; read-out: average effective concentration, U937
# M07e [13] = test: Secondary dose-response HTS, Cell Titer Glo; type: cell-based, human; details: Homo sapiens, M-07e; secondary high-throughput screen; M07e; read-out: average effective concentration, M07e
# CHRF288-11 [14] = test: Secondary dose-response HTS, Cell Titer Glo; type: cell-based, human; details: Homo sapiens, HTS; secondary high-throughput screen; CHRF288-11; read-out: average effective concentration, CHRF288-11
# ML-2 [15] = tested on: ML-2; set-up: species or system AML cell lines (8); Primary HTS, single concentration about 10 uM, Cell Titer Glo viability; log10 luminescence, per cent inhibition relative to cycloheximide control; details: 72 h, relative to cycloheximide control, log10 luminescence, inhibitor
# MOLM-13 [16] = tested on: MOLM-13; set-up: species or system AML cell lines (8); Primary HTS, single concentration about 10 uM, Cell Titer Glo viability; log10 luminescence, per cent inhibition relative to cycloheximide control; details: 72 h, relative to cycloheximide control, log10 luminescence, inhibitor
# M07e [17] = tested on: M07e; set-up: species or system AML cell lines (8); Primary HTS, single concentration about 10 uM, Cell Titer Glo viability; log10 luminescence, per cent inhibition relative to cycloheximide control; details: 72 h, relative to cycloheximide control, log10 luminescence, inhibitor
# CHRF288-11 [18] = tested on: CHRF288-11; set-up: species or system AML cell lines (8); Primary HTS, single concentration about 10 uM, Cell Titer Glo viability; log10 luminescence, per cent inhibition relative to cycloheximide control; details: 72 h, relative to cycloheximide control, log10 luminescence; inhibitor
# MV4-11 [19] = tested on: MV4-11; set-up: species or system AML cell lines (8); Primary HTS, single concentration about 10 uM, Cell Titer Glo viability; log10 luminescence, per cent inhibition relative to cycloheximide control; details: 72 h, relative to cycloheximide control, log10 luminescence, inhibitor
# CMK [20] = tested on: CMK; set-up: species or system AML cell lines (8); Primary HTS, single concentration about 10 uM, Cell Titer Glo viability; log10 luminescence, per cent inhibition relative to cycloheximide control; details: 72 h, relative to cycloheximide control, log10 luminescence, inhibitor
# CMS [21] = tested on: CMS; set-up: species or system AML cell lines (8); Primary HTS, single concentration about 10 uM, Cell Titer Glo viability; log10 luminescence, per cent inhibition relative to cycloheximide control; details: 72 h, relative to cycloheximide control, log10 luminescence, inhibitor
# U937 [22] = tested on: U937; set-up: species or system AML cell lines (8); Primary HTS, single concentration about 10 uM, Cell Titer Glo viability; log10 luminescence, per cent inhibition relative to cycloheximide control; details: 72 h, relative to cycloheximide control, log10 luminescence, inhibitor
# MOLM-13 [23] = test: Secondary dose-response HTS, Cell Titer Glo; type: cell-based, human; details: Homo sapiens; secondary high-throughput screen; MOLM-13; read-out: average effective concentration, MOLM-13
# [24] = secondary high-throughput screen, CMS
# [25] = secondary high-throughput screen
EC50 (MOLM-13 [2]),EC50 (MV4-11 [6]),EC50 (U937 [8]),EC50 (MV4-11 [10]),SMILES,EC50 (CHRF288-11 [3]),EC50 (M07e [4]),EC50 (ML-2 [5]),EC50 (CMK [9]),EC50 (CMS [11]),EC50 (M07e [13]),other results
> 10 µM,> 10 µM,> 10 µM,,Cc1cc(Nc2nc(N[C@@H](C)c3ncc(F)cn3)ncc2Cl)n[nH]1 [AZD1480],> 10 µM,> 10 µM,> 10 µM,,,,EC50 (CMS [1]; [24]): 3.3 µM; EC50 (CMK [7]; [25]): > 10 µM
> 10 µM,,> 10 µM,> 10 µM,NC(=O)[C@@H](CCC(F)(F)F)N(Cc1ccc(-c2ncon2)cc1F)S(=O)(=O)c1ccc(Cl)cc1 [BMS-708163],> 10 µM,> 10 µM,> 10 µM,> 10 µM,> 10 µM,,
> 10 µM,,> 10 µM,> 10 µM,O=c1[nH]cc(F)c(=O)[nH]1 [Compound 5-FLUOROURACIL],> 10 µM,> 10 µM,> 10 µM,> 10 µM,> 10 µM,,
0.0955 µM,0.125 µM,> 10 µM,,Cc1cc(Nc2cc(N3CCN(C)CC3)nc(/C=C/c3ccccc3)n2)n[nH]1 [ENMD-2076],> 10 µM,> 10 µM,> 10 µM,,,,EC50 (CMS [1]): 3.2 µM; EC50 (CMK [7]): 0.11 µM
> 10 µM,> 10 µM,,,CC(C)Oc1ccc(C(=O)N[C@H](CNC(=O)CN(C)C)Cc2ccc(-c3cn4cccc([C@H](C)O)c4n3)cc2)cc1Cl [GSK-923295],> 10 µM,,0.0077 µM,> 10 µM,,0.14 µM,EC50 (U937 [12]): 0.001 µM; EC50 (CMS [1]): 0.011 µM
0.0067 µM,> 10 µM,,,CC(C)C[C@H](NC(=O)CNC(=O)c1cc(Cl)ccc1Cl)B(O)O [IXAZOMIB],,,0.0052 µM,,,0.011 µM,EC50 (U937 [12]): 0.01 µM; EC50 (CMS [1]; [24]): 0.0056 µM; EC50 (CHRF288-11 [14]): 0.01 µM; EC50 (CMK [7]; [25]): 0.007 µM
> 10 µM,,> 10 µM,> 10 µM,C[C@]1(O)C[C@@H](c2nc(-c3ccc4ccc(-c5ccccc5)nc4c3)c3c(N)nccn32)C1 [LINSITINIB],> 10 µM,> 10 µM,> 10 µM,> 10 µM,> 10 µM,,ML-2 %inh (ML-2 [15]): 11.6%; MOLM-13 %inh (MOLM-13 [16]): 2.501%; M07e %inh (M07e [17]): 2.638%; CHRF288-11 %inh (CHRF288-11 [18]): 34.61%; MV4-11 %inh (MV4-11 [19]): 7.816%; CMK %inh (CMK [20]): 18.57%; CMS %inh (CMS [21]): 2.626%; U937 %inh (U937 [22]): 2.082%
0.0058 µM,> 10 µM,> 10 µM,,Cc1ccc(C(=O)Nc2ccc(Oc3cc4cnn(C)c4cc3-c3cn[nH]c3)c(F)c2)c(=O)n1-c1ccc(F)cc1 [Merestinib],> 10 µM,,> 10 µM,> 10 µM,> 10 µM,0.025 µM,
> 10 µM,> 10 µM,> 10 µM,,Cc1cn(-c2cc(NC(=O)c3ccc(C)c(Nc4nccc(-c5cccnc5)n4)c3)cc(C(F)(F)F)c2)cn1 [NILOTINIB],> 10 µM,,> 10 µM,> 10 µM,> 10 µM,> 10 µM,
> 10 µM,> 10 µM,> 10 µM,,CCCc1nc(C(C)(C)O)c(C(=O)OCc2oc(=O)oc2C)n1Cc1ccc(-c2ccccc2-c2nnn[nH]2)cc1 [OLMESARTAN MEDOXOMIL],> 10 µM,,> 10 µM,> 10 µM,> 10 µM,5.8 µM,"ML-2 %inh (ML-2 [15]; ML-2 %inh, 10 µM): 0.6032% and 1.808%; MOLM-13 %inh (MOLM-13 [16]; MOLM-13 %inh, 10 µM): 3.566% and -1.782%; M07e %inh (M07e [17]; M07e %inh, 10 µM): -0.6363% and -1.428%; MV4-11 %inh (MV4-11 [19]; MV4-11 %inh, 10 µM): 1.21% and -0.1295%; CMK %inh (CMK [20]; CMK %inh, 10 µM): 0.5387% and -8.221%; CMS %inh (CMS [21]; CMS %inh, 10 µM): -4.154% and -3.286%; U937 %inh (U937 [22]; U937 %inh, 10 µM): -0.6807% and -1.42%"
,,,0.001 µM,CO[C@H]1C[C@@H]2CC[C@@H](C)[C@@](O)(O2)C(=O)C(=O)N2CCCC[C@H]2C(=O)O[C@H]([C@H](C)C[C@@H]2CC[C@@H](O)[C@H](OC)C2)CC(=O)[C@H](C)/C=C(\C)[C@@H](O)[C@@H](OC)C(=O)[C@H](C)C[C@H](C)/C=C/C=C/C=C/1C [SIROLIMUS],> 10 µM,> 10 µM,> 10 µM,> 10 µM,,,EC50 (U937 [12]): 0.001 µM; EC50 (CMS [1]; [24]): > 10 µM; EC50 (MOLM-13 [23]): > 10 µM
> 10 µM,> 10 µM,> 10 µM,,COc1cccc2c1c(O)c(C(=O)N(C)c1ccc(C(F)(F)F)cc1)c(=O)n2C [TASQUINIMOD],> 10 µM,,> 10 µM,> 10 µM,> 10 µM,1.2 µM,
> 10 µM,,> 10 µM,7.8 µM,COc1cc2nccc(Oc3ccc(NC(=O)Nc4cc(C)on4)c(Cl)c3)c2cc1OC [TIVOZANIB],> 10 µM,> 10 µM,> 10 µM,> 10 µM,> 10 µM,,
> 10 µM,> 10 µM,> 10 µM,,FC(F)c1nc2ccccc2n1-c1nc(N2CCOCC2)nc(N2CCOCC2)n1 [ZSTK-474],> 10 µM,> 10 µM,> 10 µM,> 10 µM,> 10 µM,,

SMILES,EC50 (MOLM-13 [2]),EC50 (MV4-11 [6]),EC50 (U937 [8]),EC50 (MV4-11 [10]),EC50 (CHRF288-11 [3]),EC50 (M07e [4]),EC50 (ML-2 [5]),EC50 (CMK [9]),EC50 (CMS [11]),EC50 (M07e [13]),other results
O=C1CCC[C@@H]2[C@H]3CCC[N+]4([O-])CCC[C@@H](CN12)[C@@H]34 (some centres unmarked) [OXYMATRINE],> 10 µM,> 10 µM,> 10 µM,,> 10 µM,,> 10 µM,> 10 µM,> 10 µM,0.058 µM,
CS(=O)(=O)c1ccc(-c2cnc(N)c(C(=O)Nc3ccccc3)n2)cc1 [VE-821],> 10 µM,> 10 µM,> 10 µM,,> 10 µM,,> 10 µM,> 10 µM,> 10 µM,6.7 µM,
